Molecules are shown by their SMILES.

Acetylcholinesterase, sequence (P04058 whole entry): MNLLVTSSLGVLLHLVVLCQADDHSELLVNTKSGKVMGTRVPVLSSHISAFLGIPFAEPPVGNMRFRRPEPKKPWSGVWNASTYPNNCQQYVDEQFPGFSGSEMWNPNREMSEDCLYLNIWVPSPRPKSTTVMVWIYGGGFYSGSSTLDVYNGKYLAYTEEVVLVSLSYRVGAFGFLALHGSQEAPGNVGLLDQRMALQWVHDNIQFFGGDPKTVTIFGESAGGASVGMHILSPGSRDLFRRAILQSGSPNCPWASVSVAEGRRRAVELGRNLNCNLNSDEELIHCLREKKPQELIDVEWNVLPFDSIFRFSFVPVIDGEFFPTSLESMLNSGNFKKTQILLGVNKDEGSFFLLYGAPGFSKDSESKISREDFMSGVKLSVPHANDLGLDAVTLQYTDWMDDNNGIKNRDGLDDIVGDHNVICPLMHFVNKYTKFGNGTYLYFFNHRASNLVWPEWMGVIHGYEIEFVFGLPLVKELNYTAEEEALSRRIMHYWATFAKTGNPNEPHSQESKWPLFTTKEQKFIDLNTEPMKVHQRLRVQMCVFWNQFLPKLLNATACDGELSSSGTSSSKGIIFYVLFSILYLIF

The test addresses Acetylcholinesterase (Torpedo californica, UniProt P04058). The test is described as follows: Tested for the ability to inhibit Acetylcholinesterase (AChE) from Torpedo californica. Further details: species or system Tetronarce californica.
What is called Ki is the equilibrium dissociation constant of an inhibitor or competing ligand from its target. The low end stands for tighter binding, the high end for weaker binding. Compound `CC(C)c1cccc(C(=O)C(F)(F)F)c1` returned a Ki of 0.0085 nM. This lies in the picomolar range. The figure for `CC(C)(C)c1cccc(C(=O)C(F)(F)F)c1` is 0.0037 nM; for `O=C(c1cccc(C(F)(F)F)c1)C(F)(F)F` it is 0.39 nM; for `CCc1cccc(C(=O)C(F)(F)F)c1` it is 0.39 nM. `Cc1cccc(C(=O)C(F)(F)F)c1`: affinity was put at a Ki of 2.4 nM.

Values taken from ChEMBL document CHEMBL1127156, “m-Alkyl, ,,-trifluoroacetophenones: A new class of potent transition state analog inhibitors of acetylcholinesterase” (Bioorg Med Chem Lett, 1993).
